Literature values as cited in patent publication US20110045550A1, “Fission Yeast Expressing Cytochrome P450 Reductase” (priority 2007, published 2011).

Legend:
[1] = target: human P-glycoprotein ATPases (ABCB1 subfamily) (Homo sapiens, UniProt P08183)
[2] = pH=8.5

human P-glycoprotein ATPases (ABCB1 subfamily), sequence (P08183 whole entry): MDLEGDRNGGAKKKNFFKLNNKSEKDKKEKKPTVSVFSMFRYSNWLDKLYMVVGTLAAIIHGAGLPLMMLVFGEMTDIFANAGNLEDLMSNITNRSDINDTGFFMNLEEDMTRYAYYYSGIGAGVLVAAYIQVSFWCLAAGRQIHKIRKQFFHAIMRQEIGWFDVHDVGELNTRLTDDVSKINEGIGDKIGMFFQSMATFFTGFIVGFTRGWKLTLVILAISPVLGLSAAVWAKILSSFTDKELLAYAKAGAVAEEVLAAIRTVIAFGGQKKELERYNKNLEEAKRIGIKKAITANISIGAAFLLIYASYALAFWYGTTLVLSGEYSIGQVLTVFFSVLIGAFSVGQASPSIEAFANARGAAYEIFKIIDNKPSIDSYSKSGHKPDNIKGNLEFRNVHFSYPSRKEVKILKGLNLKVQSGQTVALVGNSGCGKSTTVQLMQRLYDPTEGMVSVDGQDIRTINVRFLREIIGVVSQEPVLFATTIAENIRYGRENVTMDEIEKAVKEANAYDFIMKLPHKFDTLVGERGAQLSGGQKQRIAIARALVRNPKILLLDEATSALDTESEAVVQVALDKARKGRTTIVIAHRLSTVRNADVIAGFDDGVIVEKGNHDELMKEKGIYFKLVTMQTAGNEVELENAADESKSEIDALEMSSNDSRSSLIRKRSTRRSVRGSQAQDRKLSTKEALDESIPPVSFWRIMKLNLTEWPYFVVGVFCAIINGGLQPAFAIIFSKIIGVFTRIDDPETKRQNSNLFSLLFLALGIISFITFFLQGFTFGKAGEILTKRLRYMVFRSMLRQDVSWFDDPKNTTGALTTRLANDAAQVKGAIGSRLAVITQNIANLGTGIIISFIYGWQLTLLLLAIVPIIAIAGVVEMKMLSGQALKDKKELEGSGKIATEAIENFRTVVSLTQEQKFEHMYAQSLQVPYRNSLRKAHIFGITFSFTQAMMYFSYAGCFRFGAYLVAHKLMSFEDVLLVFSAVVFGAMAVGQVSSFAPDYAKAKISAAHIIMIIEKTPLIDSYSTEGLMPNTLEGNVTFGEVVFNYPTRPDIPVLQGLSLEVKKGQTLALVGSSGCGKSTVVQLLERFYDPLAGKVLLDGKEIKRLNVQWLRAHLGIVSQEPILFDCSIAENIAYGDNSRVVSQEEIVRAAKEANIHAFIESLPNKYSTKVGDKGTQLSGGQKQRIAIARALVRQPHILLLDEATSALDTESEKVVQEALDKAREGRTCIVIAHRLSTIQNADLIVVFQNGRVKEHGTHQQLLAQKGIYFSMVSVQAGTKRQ

| SMILES | substrate for human P-glycoprotein [1] | solubility [2] |
| --- | --- | --- |
| CC(NC(C)(C)C)C(=O)c1cccc(Cl)c1 (stereo not drawn) [bupropion] | weak substrate | – |
| Cc1ncc2n1-c1ccc(Cl)cc1C(c1ccccc1F)=NC2 [midazolam] | very good substrate | around 150 μM |
